Laboratory results taken from PMC9016025, “Translational imaging of the fibroblast activation protein (FAP) using the new ligand [^68Ga]Ga-OncoFAP-DOTAGA” (European Journal of Nuclear Medicine and Molecular Imaging, 2021).

Tests used:
[1] = test system: subcutaneous HT1080 (FAP−) and HT1080-hFAP (FAP+) tumors; assay: Gamma counting biodistribution in tumor-bearing mice; format: in vivo, mouse
Description: For tumor-xenograft models, female NMRI nu/nu mice (Janvier, France), 8–9 weeks old, were housed at a constant temperature (22 °C) and relative humidity (40–55%) under a regular light/dark schedule. Food and water were available ad libitum.
Tumor cells (10^6 cells in 50 μL saline) were implanted subcutaneously in the shoulders of NMRI mice with HT1080 wildtype (FAP^−) in one shoulder and with stably transfected human FAP-expressing HT1080 cells (FAP^+) in the contralateral shoulder. Cells were kindly provided by U. Haberkorn, University of Heidelberg. At day 11 after implantation, mice received whole-body PET/MRI (1 T Mediso nanoScan) imaging with list mode PET for 60 min and additional non-contrast-enhanced anatomic, coronal T1-weighted MRI, followed by late static PET/MRI imaging 180 min p.i. Either ^68Ga-OncoFAP or ^68Ga-FAPI-46 (n = 6 each) was injected into the tail vein with a syringe pump at 1000 μL/min in a volume of 100 μL 30 s after the start of PET. At the next day (day 12 after implantation), the same mice were injected with the respective other FAP-tracer and received identical dynamic PET/MRI for 60 min. […] All involved measuring hardware (dose calibrator ISOMED 2010, automatic γ-counter PERKIN ELMER WALAC 2480, Twilite coincidence detector Swisstrace, PET/MRI) were cross-calibrated for ^68Ga. Overall, 3 scans were rejected, because of extravasation (day 11 OncoFAP), inability of i.v. access (day 12 FAPI-46), and insufficient radioactivity (day 12 FAPI-46), respectively. The resulting injected amounts of radioactivity for the remaining 11 ^68Ga-OncoFAP scans and 10 ^68Ga-FAPI-46 scans were 19.2 ± 4.4 MBq and 18.2 ± 4.8 MBq, respectively.

[2] = test system: subcutaneous HT1080 (FAP−) and HT1080-hFAP (FAP+) tumors; assay: Dynamic and late static small animal PET/MRI in tumor-bearing mice; format: in vivo, mouse
Description: Tumor cells (10^6 cells in 50 μL saline) were implanted subcutaneously in the shoulders of NMRI mice with HT1080 wildtype (FAP^−) in one shoulder and with stably transfected human FAP-expressing HT1080 cells (FAP^+) in the contralateral shoulder. Cells were kindly provided by U. Haberkorn, University of Heidelberg. At day 11 after implantation, mice received whole-body PET/MRI (1 T Mediso nanoScan) imaging with list mode PET for 60 min and additional non-contrast-enhanced anatomic, coronal T1-weighted MRI, followed by late static PET/MRI imaging 180 min p.i. Either ^68Ga-OncoFAP or ^68Ga-FAPI-46 (n = 6 each) was injected into the tail vein with a syringe pump at 1000 μL/min in a volume of 100 μL 30 s after the start of PET. At the next day (day 12 after implantation), the same mice were injected with the respective other FAP-tracer and received identical dynamic PET/MRI for 60 min. Sixty minutes p.i., mice were sacrificed under deep narcosis and organs and body fluids were harvested, weighed, and γ-counted. All involved measuring hardware (dose calibrator ISOMED 2010, automatic γ-counter PERKIN ELMER WALAC 2480, Twilite coincidence detector Swisstrace, PET/MRI) were cross-calibrated for ^68Ga. Overall, 3 scans were rejected, because of extravasation (day 11 OncoFAP), inability of i.v. access (day 12 FAPI-46), and insufficient radioactivity (day 12 FAPI-46), respectively. The resulting injected amounts of radioactivity for the remaining 11 ^68Ga-OncoFAP scans and 10 ^68Ga-FAPI-46 scans were 19.2 ± 4.4 MBq and 18.2 ± 4.8 MBq, respectively.
Dynamic PET scans were reconstructed in time frames of 1 × 30 s, 5 × 12 s, 5 × 60 s, 4 × 300 s, 2 × 600 s, and 1 × 810 s. Frames 12 and 18 and the late scan are referred to as (rounded) 10 min, 1 h, and 3 h throughout the manuscript. Volume of interests (VOI) of tumors and representative organs were defined on anatomic MRI. Resulting tumor volumes for ^68Ga-OncoFAP scans for FAP^+ and FAP^− tumors were 0.4 ± 0.36 and 0.22 ± 0.15, and for FAPI-46 scans were 0.34 ± 0.20 and 0.2 ± 0.17 (n.s. different between the two tracers).

SMILES: CN(CCCN1CCN(C(=O)CN2CCN(CC(=O)[O-])CCN(CC(=O)[O-])CCN(CC(=O)[O-])CC2)CC1)c1ccc2nccc(C(=O)NCC(=O)N3CC(F)(F)C[C@H]3C#N)c2c1.[68Ga+3] [^68Ga-FAPI-46, [^68Ga]Ga-FAPI-46]
- organ-to-blood ratio brain ([1]; gamma counting 1 h p.i.): 0.06 ± 0.01
- organ-to-blood ratio heart ([1]; gamma counting 1 h p.i.): 0.36 ± 0.04
- organ-to-blood ratio kidney ([1]; gamma counting 1 h p.i.): 11.58 ± 8.84
- organ-to-blood ratio liver ([1]; gamma counting 1 h p.i.): 0.70 ± 0.23
- organ-to-blood ratio lung ([1]; gamma counting 1 h p.i.): 1.84 ± 1.04
- organ-to-blood ratio muscle ([1]; gamma counting 1 h p.i.): 0.31 ± 0.11
- organ-to-blood ratio spleen ([1]; gamma counting 1 h p.i.): 0.43 ± 0.06
- organ-to-blood ratio tumor FAP+ (tumor-to-blood ratio) ([1]; gamma counting 1 h p.i.): 1.98 ± 0.92
- organ-to-blood ratio tumor FAP- ([1]; gamma counting 1 h p.i.): 0.55 ± 0.08
- uptake blood ([1]; gamma counting 1 h p.i.): 0.69 ± 0.15 % ID/g
- uptake heart ([1]; gamma counting 1 h p.i.): 0.25 ± 0.07 % ID/g
- uptake kidney ([1]; gamma counting 1 h p.i.): 8.58 ± 7.52 % ID/g
- uptake liver ([1]; gamma counting 1 h p.i.): 0.46 ± 0.06 % ID/g
- uptake lung ([1]; gamma counting 1 h p.i.): 1.17 ± 0.43 % ID/g
- uptake muscle ([1]; gamma counting 1 h p.i.): 0.21 ± 0.07 % ID/g
- uptake plasma ([1]; gamma counting 1 h p.i.): 1.02 ± 0.30 % ID/g
- uptake spleen ([1]; gamma counting 1 h p.i.): 0.29 ± 0.05 % ID/g
- uptake tumor FAP+ ([1]; gamma counting 1 h p.i.): 1.28 ± 0.40 % ID/g
- uptake tumor FAP- ([1]; gamma counting 1 h p.i.): 0.38 ± 0.12 % ID/g
- uptake urine ([1]; gamma counting 1 h p.i.): 525.55 ± 279.13 % ID/g
- organ-to-blood ratio brain ([1]; gamma counting 3 h p.i.): 0.15 ± 0.10
- organ-to-blood ratio heart ([1]; gamma counting 3 h p.i.): 0.51 ± 0.23
- organ-to-blood ratio kidney ([1]; gamma counting 3 h p.i.): 10.39 ± 5.81
- organ-to-blood ratio liver ([1]; gamma counting 3 h p.i.): 1.73 ± 1.28
- organ-to-blood ratio lung ([1]; gamma counting 3 h p.i.): 2.27 ± 1.98
- organ-to-blood ratio muscle ([1]; gamma counting 3 h p.i.): 0.38 ± 0.26
- organ-to-blood ratio spleen ([1]; gamma counting 3 h p.i.): 0.78 ± 0.47
- organ-to-blood ratio tumor FAP+ (tumor-to-blood ratio) ([1]; gamma counting 3 h p.i.): 28.62 ± 17.69
- organ-to-blood ratio tumor FAP- ([1]; gamma counting 3 h p.i.): 1.15 ± 0.67
- uptake blood ([1]; gamma counting 3 h p.i.): 0.22 ± 0.31 % ID/g
- uptake brain ([1]; gamma counting 3 h p.i.): 0.01 ± 0.00 % ID/g
- uptake heart ([1]; gamma counting 3 h p.i.): 0.05 ± 0.02 % ID/g
- uptake kidney ([1]; gamma counting 3 h p.i.): 0.98 ± 0.60 % ID/g
- uptake liver ([1]; gamma counting 3 h p.i.): 0.14 ± 0.03 % ID/g
- uptake lung ([1]; gamma counting 3 h p.i.): 0.17 ± 0.06 % ID/g
- uptake muscle ([1]; gamma counting 3 h p.i.): 0.04 ± 0.02 % ID/g
- uptake plasma ([1]; gamma counting 3 h p.i.): 0.38 ± 0.53 % ID/g
- uptake spleen ([1]; gamma counting 3 h p.i.): 0.07 ± 0.02 % ID/g
- uptake tumor FAP+ ([1]; gamma counting 3 h p.i.): 2.64 ± 0.60 % ID/g
- uptake tumor FAP- ([1]; gamma counting 3 h p.i.): 0.11 ± 0.03 % ID/g
- SUVmean blood ([2]; small animal PET 10 min p.i.): 0.52 ± 0.09
- SUVmean kidney ([2]; small animal PET 10 min p.i.): 1.43 ± 0.88
- SUVmean liver ([2]; small animal PET 10 min p.i.): 0.57 ± 0.17
- SUVmean muscle ([2]; small animal PET 10 min p.i.): 0.35 ± 0.07
- SUVmean spleen ([2]; small animal PET 10 min p.i.): 0.40 ± 0.19
- SUVmean tumor FAP+ ([2]; small animal PET 10 min p.i.): 0.40 ± 0.07
- SUVmean tumor FAP- ([2]; small animal PET 10 min p.i.): 0.39 ± 0.07
- SUVmean blood ([2]; small animal PET 1 h p.i.): 0.19 ± 0.07
- SUVmean kidney ([2]; small animal PET 1 h p.i.): 0.54 ± 0.54
- SUVmean liver ([2]; small animal PET 1 h p.i.): 0.28 ± 0.16
- SUVmean muscle ([2]; small animal PET 1 h p.i.): 0.08 ± 0.04
- SUVmean spleen ([2]; small animal PET 1 h p.i.): 0.15 ± 0.07
- SUVmean tumor FAP+ ([2]; small animal PET 1 h p.i.): 0.25 ± 0.06
- SUVmean tumor FAP- ([2]; small animal PET 1 h p.i.): 0.10 ± 0.05
- SUVmean kidney ([2]; small animal PET 3 h p.i.): 0.07 ± 0.02
- SUVmean liver ([2]; small animal PET 3 h p.i.): 0.28 ± 0.19
- SUVmean muscle ([2]; small animal PET 3 h p.i.): 0.02 ± 0.00
- SUVmean spleen ([2]; small animal PET 3 h p.i.): 0.09 ± 0.06
- SUVmean tumor FAP+ ([2]; small animal PET 3 h p.i.): 0.16 ± 0.06
- SUVmean tumor FAP- ([2]; small animal PET 3 h p.i.): 0.02 ± 0.01
